Paper PMC3886529, “Structural Features of the Peptide Homologous to 6-25 Fragment of Influenza A PB1 Protein” (International Journal of Peptides, 2013)
Ends that are not written are not given here.

Tests used:
PB1 (6-25) [1] = target: T1, PB1 (6-25) (Influenza A virus, UniProt O89749); format: physicochemical
PB1 (6-25) [2] = target: T1, PB1 (6-25); format: physicochemical; remark: listed apart in the source
PB1 (6-25) [3] = target: T1, PB1 (6-25); format: physicochemical; settings: pH 7.4
[4] = format: physicochemical; settings: diluted to 0.2 mM, negative staining (phosphotungstic acid, pH 7.4), 80 kV
PB1 (6-25) [5] = target: T1, PB1 (6-25); format: binding
PB1 (6-25) [6] = target: T1, PB1 (6-25); assay: biochemical; format: binding
[7] = Circular dichroism, secondary structure of PB1 (6-25) in solution; format: physicochemical; settings: CD 194–320 nm, 1 mg/mL solution
Protocol: Circular dichroism (194–320 nm) was measured on PB1 (6-25) 1 mg/mL solution. Spectra were analyzed with CDNN software.

Question: With TLLFLKVP-OH [PB1 (6-13), TLLFLKVP] as the substance, how does the “reversibility of insoluble aggregates” value (PB1 (6-25) [1]) read?
Answer: could not reverse into soluble forms after dilution or heating

Question: And the diameter of aggregates (PB1 (6-25) [2])?
Answer: 500–1000 nm

Question: What about the “characteristic linear size of structured aggregates” value (PB1 (6-25) [3]) of the same substance?
Answer: about 500 nm

Question: What about the “formation of structured aggregates, single peptide alone” value [4] of the same substance?
Answer: not in the samples containing either one of the peptides

Question: And the “effect on antiparallel beta-sheets of PB1 (6-25)” value (PB1 (6-25) [5])?
Answer: contributed to increase antiparallel beta-sheets

Question: And the Kd (PB1 (6-25) [6])?
Answer: 200 to 1000 µM

Question: Which alpha-helix content ([7]; CDNN software) does the source give for “TLLFLKVPAQNAISTTFPYT [PB1 (6-25), peptide comprised of amino acid residues 6-25 of influenza virus PB1]” here?
Answer: 8%

Question: What about the antiparallel beta-sheet content ([7]; CDNN software) of the same substance?
Answer: 30%

Question: And the beta-turns content ([7]; CDNN software)?
Answer: 25%

Question: What about the “random coil structure content” value ([7]; CDNN software) of the same substance?
Answer: 37%

Question: And the “secondary structure in solution” value ([7]; compared with the molecular dynamics model)?
Answer: structure similar to the described model of beta-hairpin

Question: What about the “formation of structured aggregates, single peptide alone” value [4] of the same substance?
Answer: not in the samples containing either one of the peptides
